Laboratory results: ChEMBL document CHEMBL5465560, “Selectivity Literature for EUbOPEN Chemogenomic Library” (2024)
One block for each compound: values may come before it.

Key:
[1] = biological target: Serine/threonine-protein kinase SMG1 (Homo sapiens) (UniProt Q96Q15); experiment: Selectivity interaction (ActivX KiNativ screen (kinase selectivity in THP-1 cell lysates)) EUB0000639a SMG1; assay type: subcellular; conditions: lysate, at 5 µM
[2] = biological target: Proto-oncogene tyrosine-protein kinase Src (Homo sapiens, UniProt P12931); experiment: Selectivity interaction (Kinase panel (Z-LYTE Assay)) EUB0001632a SRC; conditions: at 10 µM
[3] = biological target: T1, Tyrosine-protein kinase TXK (Homo sapiens) (UniProt P42681); conditions: at 10 µM
T1 sequence (whole entry): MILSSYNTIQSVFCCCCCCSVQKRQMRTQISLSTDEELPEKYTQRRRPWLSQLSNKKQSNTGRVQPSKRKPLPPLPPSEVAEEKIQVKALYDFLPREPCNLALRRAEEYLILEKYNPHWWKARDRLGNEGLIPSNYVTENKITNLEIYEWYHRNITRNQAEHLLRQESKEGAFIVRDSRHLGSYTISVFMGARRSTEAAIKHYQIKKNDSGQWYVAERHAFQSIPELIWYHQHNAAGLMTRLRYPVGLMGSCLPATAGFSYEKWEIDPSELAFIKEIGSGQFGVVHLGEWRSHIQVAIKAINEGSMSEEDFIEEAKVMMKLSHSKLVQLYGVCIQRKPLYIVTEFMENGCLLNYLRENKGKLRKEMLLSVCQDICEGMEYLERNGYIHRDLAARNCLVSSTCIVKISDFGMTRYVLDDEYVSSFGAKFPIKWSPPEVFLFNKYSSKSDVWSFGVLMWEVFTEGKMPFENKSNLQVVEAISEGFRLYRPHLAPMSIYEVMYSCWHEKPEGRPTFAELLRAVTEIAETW

[4] = biological target: T2, Ephrin type-B receptor 4 (Homo sapiens) (UniProt P54760); experiment: Selectivity interaction (Upstate Kinase Profiler service (Millipore)) EUB0000056c EPHB4; conditions: at 1 µM
T2 sequence (whole entry): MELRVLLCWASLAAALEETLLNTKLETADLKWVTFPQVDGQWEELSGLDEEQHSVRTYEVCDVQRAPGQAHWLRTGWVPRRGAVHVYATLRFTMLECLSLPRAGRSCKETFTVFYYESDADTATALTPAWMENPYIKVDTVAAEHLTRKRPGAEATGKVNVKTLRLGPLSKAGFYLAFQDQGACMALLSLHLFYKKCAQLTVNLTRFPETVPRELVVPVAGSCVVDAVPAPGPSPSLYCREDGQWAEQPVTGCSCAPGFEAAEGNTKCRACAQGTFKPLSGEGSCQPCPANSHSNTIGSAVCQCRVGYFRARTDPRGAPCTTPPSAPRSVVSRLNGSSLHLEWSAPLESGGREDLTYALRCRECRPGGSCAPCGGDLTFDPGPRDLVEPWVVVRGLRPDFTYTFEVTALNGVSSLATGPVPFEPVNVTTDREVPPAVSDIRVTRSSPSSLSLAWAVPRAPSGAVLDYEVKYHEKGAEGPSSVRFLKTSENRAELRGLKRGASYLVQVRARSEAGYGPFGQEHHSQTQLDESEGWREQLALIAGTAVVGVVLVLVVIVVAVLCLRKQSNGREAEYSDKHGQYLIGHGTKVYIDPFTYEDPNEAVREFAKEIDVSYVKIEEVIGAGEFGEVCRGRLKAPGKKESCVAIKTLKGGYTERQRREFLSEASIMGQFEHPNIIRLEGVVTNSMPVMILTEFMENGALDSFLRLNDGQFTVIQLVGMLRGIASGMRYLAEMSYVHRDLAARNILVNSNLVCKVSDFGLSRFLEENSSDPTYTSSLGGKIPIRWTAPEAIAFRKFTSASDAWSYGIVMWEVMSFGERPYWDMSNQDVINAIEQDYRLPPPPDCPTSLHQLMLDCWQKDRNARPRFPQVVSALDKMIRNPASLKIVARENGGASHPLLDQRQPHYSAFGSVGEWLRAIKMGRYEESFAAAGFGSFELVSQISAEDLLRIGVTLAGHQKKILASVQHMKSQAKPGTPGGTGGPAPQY

[5] = biological target: Bone morphogenetic protein receptor type-1A (Homo sapiens, UniProt P36894); experiment: Selectivity interaction (KinomeScan (DiscoverX)) EUB0000607a BMPR1A; conditions: at 10 µM
[6] = tested on: eIF-2-alpha kinase GCN2 (Homo sapiens), Q9P2K8 [S808G]; experiment: Selectivity interaction (KinomeScan (DiscoverX)) EUB0000607a EIF2AK4; conditions: at 10 µM
[7] = biological target: T3, Serine/threonine-protein kinase Chk1 (Homo sapiens) (UniProt O14757); experiment: Selectivity interaction (KinomeScan (DiscoverX)) EUB0000666a CHEK1; conditions: at 10 µM
T3 sequence (whole entry): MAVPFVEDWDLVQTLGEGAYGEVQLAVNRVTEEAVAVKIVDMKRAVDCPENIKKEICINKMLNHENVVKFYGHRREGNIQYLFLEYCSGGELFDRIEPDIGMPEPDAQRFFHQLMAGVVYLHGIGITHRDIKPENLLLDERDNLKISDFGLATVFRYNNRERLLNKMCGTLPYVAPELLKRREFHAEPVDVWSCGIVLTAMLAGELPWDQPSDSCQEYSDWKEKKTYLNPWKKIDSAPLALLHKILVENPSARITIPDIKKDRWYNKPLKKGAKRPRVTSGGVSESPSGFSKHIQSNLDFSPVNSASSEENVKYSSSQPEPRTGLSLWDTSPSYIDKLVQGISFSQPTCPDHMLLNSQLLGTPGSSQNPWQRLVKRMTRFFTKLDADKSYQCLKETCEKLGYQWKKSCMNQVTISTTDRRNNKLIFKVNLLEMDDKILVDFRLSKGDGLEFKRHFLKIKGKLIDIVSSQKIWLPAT

Sequence of Bone morphogenetic protein receptor type-1A (P36894 whole entry): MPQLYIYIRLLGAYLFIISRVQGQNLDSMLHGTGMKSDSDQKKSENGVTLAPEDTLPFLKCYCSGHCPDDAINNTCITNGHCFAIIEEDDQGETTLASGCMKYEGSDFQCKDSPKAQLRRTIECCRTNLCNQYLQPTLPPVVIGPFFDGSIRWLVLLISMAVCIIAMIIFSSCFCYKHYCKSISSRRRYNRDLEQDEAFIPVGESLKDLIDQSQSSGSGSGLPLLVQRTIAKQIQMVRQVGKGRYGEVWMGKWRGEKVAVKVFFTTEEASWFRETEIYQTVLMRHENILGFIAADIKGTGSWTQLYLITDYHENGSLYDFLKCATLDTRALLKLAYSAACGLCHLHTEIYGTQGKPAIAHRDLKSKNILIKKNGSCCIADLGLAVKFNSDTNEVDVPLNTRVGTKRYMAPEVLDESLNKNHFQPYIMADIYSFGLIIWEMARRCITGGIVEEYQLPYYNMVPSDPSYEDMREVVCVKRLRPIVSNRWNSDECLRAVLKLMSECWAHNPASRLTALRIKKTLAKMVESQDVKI
Sequence of eIF-2-alpha kinase GCN2 (Homo sapiens), Q9P2K8 [S808G] (Q9P2K8 whole entry S808G): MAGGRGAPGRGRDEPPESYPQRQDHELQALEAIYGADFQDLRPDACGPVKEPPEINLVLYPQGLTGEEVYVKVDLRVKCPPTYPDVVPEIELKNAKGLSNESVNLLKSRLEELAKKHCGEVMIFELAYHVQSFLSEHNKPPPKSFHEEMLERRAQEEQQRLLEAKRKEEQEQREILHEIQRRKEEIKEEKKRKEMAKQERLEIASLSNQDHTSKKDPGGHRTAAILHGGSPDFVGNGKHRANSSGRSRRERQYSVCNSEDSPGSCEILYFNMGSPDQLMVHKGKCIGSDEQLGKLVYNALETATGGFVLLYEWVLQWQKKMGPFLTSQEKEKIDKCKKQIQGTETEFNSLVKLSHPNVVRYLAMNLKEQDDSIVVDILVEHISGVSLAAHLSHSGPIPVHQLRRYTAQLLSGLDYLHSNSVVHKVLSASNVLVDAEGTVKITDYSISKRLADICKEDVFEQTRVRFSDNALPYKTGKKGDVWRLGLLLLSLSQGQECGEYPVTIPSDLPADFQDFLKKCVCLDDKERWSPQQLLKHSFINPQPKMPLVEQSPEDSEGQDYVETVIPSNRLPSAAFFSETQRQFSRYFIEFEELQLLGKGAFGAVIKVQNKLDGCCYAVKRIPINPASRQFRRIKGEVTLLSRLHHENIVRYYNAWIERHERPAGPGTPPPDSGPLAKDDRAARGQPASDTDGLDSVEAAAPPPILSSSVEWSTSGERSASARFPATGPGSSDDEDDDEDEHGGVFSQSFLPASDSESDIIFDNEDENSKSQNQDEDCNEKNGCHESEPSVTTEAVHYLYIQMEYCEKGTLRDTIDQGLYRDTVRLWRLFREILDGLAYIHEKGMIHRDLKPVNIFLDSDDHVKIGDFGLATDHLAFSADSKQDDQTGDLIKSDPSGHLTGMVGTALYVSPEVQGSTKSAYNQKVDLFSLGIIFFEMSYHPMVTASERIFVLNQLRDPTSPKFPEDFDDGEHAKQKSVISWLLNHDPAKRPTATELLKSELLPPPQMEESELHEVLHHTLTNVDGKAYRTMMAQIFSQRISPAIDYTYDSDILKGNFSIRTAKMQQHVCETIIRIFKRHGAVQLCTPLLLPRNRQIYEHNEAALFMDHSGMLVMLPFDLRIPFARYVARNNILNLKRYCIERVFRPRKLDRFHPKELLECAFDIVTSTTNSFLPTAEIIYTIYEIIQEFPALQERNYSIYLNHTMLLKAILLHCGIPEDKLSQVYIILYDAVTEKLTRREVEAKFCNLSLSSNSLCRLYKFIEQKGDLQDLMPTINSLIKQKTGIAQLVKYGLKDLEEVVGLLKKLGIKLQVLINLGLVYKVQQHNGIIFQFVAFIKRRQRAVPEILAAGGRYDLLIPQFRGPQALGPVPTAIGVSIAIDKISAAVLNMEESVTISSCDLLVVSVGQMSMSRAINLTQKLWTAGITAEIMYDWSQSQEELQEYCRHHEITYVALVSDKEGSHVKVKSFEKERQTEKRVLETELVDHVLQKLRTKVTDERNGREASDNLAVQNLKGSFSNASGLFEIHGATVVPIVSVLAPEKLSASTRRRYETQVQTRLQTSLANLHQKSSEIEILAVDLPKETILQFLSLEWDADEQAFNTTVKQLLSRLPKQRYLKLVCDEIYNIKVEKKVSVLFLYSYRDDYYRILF
Sequence of Proto-oncogene tyrosine-protein kinase Src (P12931 2-536 limits assumed): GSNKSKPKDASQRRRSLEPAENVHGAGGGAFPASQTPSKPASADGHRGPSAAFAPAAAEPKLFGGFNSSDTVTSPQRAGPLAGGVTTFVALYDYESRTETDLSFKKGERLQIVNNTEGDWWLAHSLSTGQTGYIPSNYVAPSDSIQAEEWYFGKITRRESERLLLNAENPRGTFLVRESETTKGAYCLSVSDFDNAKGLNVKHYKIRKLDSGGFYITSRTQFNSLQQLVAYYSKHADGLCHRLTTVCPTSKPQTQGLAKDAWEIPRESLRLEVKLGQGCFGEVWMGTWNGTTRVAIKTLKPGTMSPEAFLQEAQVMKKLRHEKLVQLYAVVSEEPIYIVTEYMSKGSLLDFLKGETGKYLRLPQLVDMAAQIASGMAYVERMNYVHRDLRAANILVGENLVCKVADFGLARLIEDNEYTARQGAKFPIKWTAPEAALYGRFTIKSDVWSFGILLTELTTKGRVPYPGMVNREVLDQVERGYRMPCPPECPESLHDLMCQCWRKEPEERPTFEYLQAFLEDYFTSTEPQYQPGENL

SMILES: CNC(=O)Nc1ccc(-c2nc(N3CC4CCC(C3)O4)c3cnn(C4CCC5(CC4)OCCO5)c3n2)cc1
% of control [5]: 100% | % of control [6]: 83%

SMILES: O=C(NOC[C@H](O)CO)c1ccc(F)c(F)c1Nc1ccc(I)cc1F
% of control [7]: 74%

Now from value to compound:

% of inhibition [1]: -11.2%
SMILES: CC[C@@H]1[C@H](F)C(=O)N[C@@H]1COc1nccc2cc(C(N)=O)c(OC)cc12 [ZIMLOVISERTIB]

% of control [2]: 12.1%
SMILES: Cn1cc(-n2cnc3c(NCc4nc5cc(Cl)c(Cl)cc5[nH]4)nc(N4CCOCC4)nc32)cn1

% of control [3]: 100%
SMILES: CCN(CC)CCCCNc1ncc2cc(-c3cc(OC)cc(OC)c3)c(NC(=O)NC(C)(C)C)nc2n1

% of inhibition [4]: -11%
SMILES: Cc1ccc(-c2ccc3c(ccc4sc5c(c43)NC[C@@H](C)NC5=O)n2)cn1
